Reference: patent US6451790B1, “Azadioxacycloalkenes and their use for combating harmful fungi and animal pests” (BASF Aktiengesellschaft, priority 1999, dated 2002)

Assays:
Assay type in all cases: in vivo
Puccinia recondita = assay: Curative action against Puccinia recondita on wheat (wheat leaf rust); details: 16 ppm, curative spray 1 day after inoculation, wheat 'Kanzler', 7 days; untreated 100%
Pyricularia oryzae = details: 16 ppm, protective spray 1 day before inoculation, rice 'Tai-Nong 67', 6 days; untreated 90%
Botrytis cinerea = assay: Action against Botrytis cinerea on bell pepper leaves; details: 250 ppm, spray 1 day before inoculation, bell pepper seedlings, after 5 days; untreated 80%
Source text: The active compounds, separately or together, were formulated as a 10% emulsion in a mixture of 70% by weight of cyclohexanone, 20% by weight of Nekanil® LN (Lutensol® AP6, wetting agent having emulsifying and dispersant action based on ethoxylated alkylphenols) and 10% by weight of Wettol® EM (nonionic emulsifier based on ethoxylated castor oil) and diluted with water to the desired concentration.
Bell pepper seedlings of the variety “Neusiedler Ideal Elite” were, after 4 to 5 leaves were well developed, sprayed to run-off point with an aqueous active compound formulation which had been made up from a stock solution consisting of 10% of active compound, 63% of cyclohexanone and 27% of emulsifier. The next day, the treated plants were inoculated with a spore suspension of Botrytis cinerea which contained 1.7×10^6 spores/ml in an aqueous 2% strength biomalt solution. The test plants were subsequently placed in a climatized chamber at 22-24° C. and high atmospheric humidity. After 5 days, the extent of the fungal infection on the leaves could be determined visually in %.

Compound | infection (extent of rust fungus development on the leaves) (Puccinia recondita) | infection (extent of development of the disease on the leaves) (Pyricularia oryzae) [%] | infection (extent of fungal infection on the leaves) (Botrytis cinerea) [%]
CO/N=C(/C1=NOCCO1)c1ccccc1COc1ccccc1C [Compound B] | 90% | 40 | 
CO/N=C(/C1=NOCCO1)c1ccccc1COc1ccn(-c2ccc(Cl)cc2)n1 [Compound I-1, (ortho-[1-{4-chlorophenyl}-pyrazol-3-yl-oxymethyl]-phenyl)(5,6-dihydro-[1,4,2]dioxazin-3-yl)methanone O-methyl oxime] | no infection | 10 | 3
CO/N=C(/C(=O)OC)c1ccccc1COc1ccn(-c2ccc(Cl)cc2)n1 [Compound A] | 60% |  | 40
